Experiments:
[1] = biological target: Cbl-b (Homo sapiens (Human), UniProt Q13191); assay: Cbl-b LCK Ub TR-FRET assay (Cbl-b Lck HTRF); type: biochemical; settings: for IC50: Cbl-b LCK Ub TR-FRET; for fold-selectivity (Cbl-b over C-cbl): ratio C-cbl Lck HTRF IC50 / Cbl-b Lck HTRF IC50
Method in brief: (§1)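 Detection reagents added, brief spin, 20 min RT. IC50 fit normalized to no-LCK (low) and DMSO (high) controls.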

[2] = biological target: c-Cbl (Homo sapiens (Human), UniProt P22681); assay: C-Cbl LCK Ub TR-FRET assay (C-cbl Lck HTRF); type: biochemical
Chain of c-Cbl (P22681 47-435): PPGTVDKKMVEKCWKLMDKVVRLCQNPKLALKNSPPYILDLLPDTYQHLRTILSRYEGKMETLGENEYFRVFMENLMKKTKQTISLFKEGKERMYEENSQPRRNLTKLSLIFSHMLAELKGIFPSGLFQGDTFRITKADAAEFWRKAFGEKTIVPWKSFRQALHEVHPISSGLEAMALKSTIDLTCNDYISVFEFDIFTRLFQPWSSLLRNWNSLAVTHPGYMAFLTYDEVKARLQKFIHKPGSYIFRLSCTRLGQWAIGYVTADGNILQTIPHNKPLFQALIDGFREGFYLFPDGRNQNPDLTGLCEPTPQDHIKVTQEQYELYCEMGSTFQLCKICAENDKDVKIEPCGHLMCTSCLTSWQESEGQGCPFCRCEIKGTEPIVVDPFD
Method in brief: as §1

[3] = biological target: Human Cbl-b (residues 40-426) (Homo sapiens (Human), UniProt Q13191); assay: Cbl-b SPR assay; type: binding; settings: for Fold of selectivity: C-cbl SPR Kd vs Cbl-b SPR Kd; for Kd: SPR, 20° C.
Chain of Human Cbl-b (residues 40-426) (Q13191 40-426): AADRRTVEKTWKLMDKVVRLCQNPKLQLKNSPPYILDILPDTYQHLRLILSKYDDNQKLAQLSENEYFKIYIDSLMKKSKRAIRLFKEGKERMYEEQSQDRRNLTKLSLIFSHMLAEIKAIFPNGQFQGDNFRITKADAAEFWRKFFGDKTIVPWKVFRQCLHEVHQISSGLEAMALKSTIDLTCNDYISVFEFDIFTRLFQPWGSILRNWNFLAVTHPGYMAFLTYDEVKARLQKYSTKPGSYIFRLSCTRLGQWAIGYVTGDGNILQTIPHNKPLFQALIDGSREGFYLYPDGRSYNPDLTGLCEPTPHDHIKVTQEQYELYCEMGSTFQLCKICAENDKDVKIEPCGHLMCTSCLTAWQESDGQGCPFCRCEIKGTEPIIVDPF
Method in brief: (§2)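 SPR, multi-cycle, 6-pt 2-fold series, blanks flanking for double referencing; capture 1300-1500 RU; contact 60 s at 40 μl/min; dissoc. 120-1200 s (~4-5 half-lives). 1:1 fit. Chaser variant: single cycle, 5 conc., top 500 nM, 120 s contact, 450 s dissociation.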

[4] = biological target: c-Cbl (residues 47-435) (Homo sapiens (Human), UniProt P22681); assay: c-Cbl SPR assay; type: binding; settings: 20° C.
Chain of c-Cbl (residues 47-435) (P22681 47-435): as the sequence (P22681 47-435) above
Method in brief: as §2

Chain of Cbl-b (Q13191 40-426): as the sequence (Q13191 40-426) above

SMILES | IC50 [1] | fold-selectivity (Cbl-b over C-cbl) [1] | IC50 [2] | Fold of selectivity [3] | Kd [3] | Kd [4]
CCOc1cc(N2Cc3c(cc(CNC4(C)CCC4)cc3C(F)(F)F)C2=O)cc([C@]2(c3nncn3C)C[C@H](OC)C2)c1 [Compound 202, 2-(3-ethoxy-5-((1r,3r)-3-methoxy-1-(4-methyl-4H-1,2,4-triazol-3-yl)cyclobutyl)phenyl)-6-(((1-methylcyclobutyl)amino)methyl)-4-(trifluoromethyl)isoindolin-1-one] | 11 nM | 1.8x | 21 nM | 5.2× | 3.3 nM | 17 nM
CCOc1cc(N2Cc3c(cc(CNC4(C)CCC4)cc3C(F)(F)F)C2=O)cc([C@]2(c3nncn3C)C[C@@H](OC)C2)c1 [Compound 203, 2-(3-ethoxy-5-((1s,3s)-3-methoxy-1-(4-methyl-4H-1,2,4-triazol-3-yl)cyclobutyl)phenyl)-6-(((1-methylcyclobutyl)amino)methyl)-4-(trifluoromethyl)isoindolin-1-one] | 18 nM | 2.1x | 38 nM | 3.3× | 6.4 nM | 21 nM
C=CCOc1cc(N2Cc3c(cc(CNC4(C)CCC4)cc3C(F)(F)F)C2=O)cc([C@]2(c3nncn3C)C[C@@H](OC)C2)c1 [Compound 205, 2-(3-(allyloxy)-5-((1s,3s)-3-methoxy-1-(4-methyl-4H-1,2,4-triazol-3-yl)cyclobutyl)phenyl)-6-(((1-methylcyclobutyl)amino)methyl)-4-(trifluoromethyl)isoindolin-1-one] | 63 nM | 3.8x | 240 nM | 2.8× | 46 nM | 130 nM
CO[C@H]1C[C@@](c2cc(OC(C)C)cc(N3Cc4c(cc(CNC5(C)CCC5)cc4C(F)(F)F)C3=O)c2)(c2nncn2C)C1 [Compound 206, 2-(3-isopropoxy-5-((1s,3s)-3-methoxy-1-(4-mehtyl-4H-1,2,4-triazol-3-yl)cyclobutyl)phenyl)-6-(((1-methylcyclobutyl)amino)methyl)-4-(trifluoromethyl)isoindolin-1-one] | 34 nM | 2.4x | 82 nM | 2.4× | 12 nM | 30 nM
CO[C@H]1C[C@](c2cc(OC(C)C)cc(N3Cc4c(cc(CNC5(C)CCC5)cc4C(F)(F)F)C3=O)c2)(c2nncn2C)C1 [Compound 207, 2-(3-isopropoxy-5-((1r,3r)-3-methoxy-1-(4-methyl-4H-1,2,4-triazol-3-yl)cyclobutyl)phenyl)-6-(((1-methylcyclobutyl)amino)methyl)-4-(trifluoromethyl)isoindolin-1-one] | 24 nM | 2.2x | 52 nM | 2.6× | 9.3 nM | 24 nM
CO[C@H]1C[C@@](c2cc(OC3CCCC3)cc(N3Cc4c(cc(CNC5(C)CCC5)cc4C(F)(F)F)C3=O)c2)(c2nncn2C)C1 [Compound 208, 2-(3-(cyclopentyloxy)-5-((1s,3s)-3-methoxy-1-(4-methyl-4H-1,2,4-triazol-3-yl)cyclobutyl)phenyl)-6-(((1-methylcyclobutyl)amino)methyl)-4-(trifluoromethyl)isoindolin-1-one] | 450 nM | 4.8x | 2200 nM | 6.0× | 250 nM | 1500 nM
CO[C@H]1C[C@](c2cc(NC3CCCC3)cc(N3Cc4c(cc(CNC5(C)CCC5)cc4C(F)(F)F)C3=O)c2)(c2nncn2C)C1 [Compound 209, 2-(3-(cyclopentylamino)-5-((1r,3r)-3-methoxy-1-(4-methyl-4H-1,2,4-triazol-3-yl)cyclobutyl)phenyl)-6-(((1-methylcyclobutyl)amino)methyl)-4-(trifluoromethyl)isoindolin-1-one] | 44 nM | 7.2x | 320 nM | 12× | 17 nM | 200 nM
CCNc1cc(N2Cc3c(cc(CNC4(C)CCC4)cc3C(F)(F)F)C2=O)cc([C@]2(c3nncn3C)C[C@H](OC)C2)c1 [Compound 210, 2-(3-(ethylamino)-5-((1r,3r)-3-methoxy-1-(4-methyl-4H-1,2,4-triazol-3-yl)cyclobutyl)phenyl)-6-(((1-methylcyclobutyl)amino)methyl)-4-(trifluoromethyl)isoindolin-1-one] | 9 nM | 1.3x | 12 nM | 4.7× | 1.5 nM | 6.7 nM

Results, then the compound that gave them:

IC50 [1] | fold-selectivity (Cbl-b over C-cbl) [1] | IC50 [2] | Fold of selectivity [3] | Kd [3] | Kd [4] | SMILES
15 nM | 4.0x | 60 nM | 14× | 3.5 nM | 49 nM | CO[C@H]1C[C@](c2cc(NC3CCC3)cc(N3Cc4c(cc(CNC5(C)CCC5)cc4C(F)(F)F)C3=O)c2)(c2nncn2C)C1 [Compound 211, 2-(3-(cyclobutylamino)-5-((1r,3r)-3-methoxy-1-(4-methyl-4H-1,2,4-triazol-3-yl)cyclobutyl)phenyl)-6-(((1-methylcyclobutyl)amino)methyl)-4-(trifluoromethyl)isoindolin-1-one]
150 nM | 2.6x | 390 nM | 4.8× | 110 nM | 530 nM | CO[C@H]1C[C@](c2cc(OC3CCCC3)cc(N3Cc4c(cc(CNC5(C)CCC5)cc4C(F)(F)F)C3=O)c2)(c2nncn2C)C1 [Compound 212, 2-(3-(cyclopentyloxy)-5-((1r,3r)-3-methoxy-1-(4-methyl-4H-1,2,4-triazol-3-yl)cyclobutyl)phenyl)-6-(((1-methylcyclobutyl)amino)methyl)-4-(trifluoromethyl)isoindolin-1-one]
240 nM | 1.9x | 440 nM | 1.8× | 160 nM | 300 nM | C=C[C@@H](C)Oc1cc(N2Cc3c(cc(CNC4(C)CCC4)cc3C(F)(F)F)C2=O)cc([C@]2(c3nncn3C)C[C@@H](OC)C2)c1 [Compound 213, 2-(3-((R)-but-3-en-2-yloxy)-5-((1s,3S)-3-methoxy-1-(4-methyl-4H-1,2,4-triazol-3-yl)cyclobutyl)phenyl)-6-(((1-methylcyclobutyl)amino)methyl)-4-(trifluoromethyl)isoindolin-1-one]
9.3 nM | 0.97x | 9 nM | 4.7× | 0.9 nM | 4.2 nM | CO[C@H]1C[C@](c2cc(NC3CC3)cc(N3Cc4c(cc(CNC5(C)CCC5)cc4C(F)(F)F)C3=O)c2)(c2nncn2C)C1 [Compound 214, 2-(3-(cyclopropylamino)-5-((1r,3r)-3-methoxy-1-(4-methyl-4H-1,2,4-triazol-3-yl)cyclobutyl)phenyl)-6-(((1-methylcyclobutyl)amino)methyl)-4-(trifluoromethyl)isoindolin-1-one]
9.4 nM | 1.3x | 12 nM | 4.1× | 1.7 nM | 7 nM | CO[C@H]1C[C@](c2cc(NC(C)C)cc(N3Cc4c(cc(CNC5(C)CCC5)cc4C(F)(F)F)C3=O)c2)(c2nncn2C)C1 [Compound 215, 2-(3-(isopropylamino)-5-((1r,3r)-3-methoxy-1-(4-methyl-4H-1,2,4-triazol-3-yl)cyclobutyl)phenyl)-6-(((1-methylcyclobutyl)amino)methyl)-4-(trifluoromethyl)isoindolin-1-one]
14 nM | 4.2x | 61 nM | 11× | 4.7 nM | 51 nM | CO[C@H]1C[C@](c2cc(NCCC#N)cc(N3Cc4c(cc(CNC5(C)CCC5)cc4C(F)(F)F)C3=O)c2)(c2nncn2C)C1 [Compound 216, 3-((3-((1r,3r)-3-methoxy-1-(4-methyl-4H-1,2,4-triazol-3-yl)cyclobutyl)-5-(6-(((1-methylcyclobutyl)amino)methyl)-1-oxo-4-(trifluoromethyl)isoindolin-2-yl)phenyl)amino)propanenitrile]
18 nM | 5.5x | 97 nM | 13× | 7.5 nM | 91 nM | CO[C@H]1C[C@@](c2cc(NC3CCC3)cc(N3Cc4c(cc(CNC5(C)CCC5)cc4C(F)(F)F)C3=O)c2)(c2nncn2C)C1 [Compound 217, 2-(3-(cyclobutylamino)-5-((1s,3s)-3-methoxy-1-(4-methyl-4H-1,2,4-triazol-3-yl)cyclobutyl)phenyl)-6-(((1-methylcyclobutyl)amino)methyl)-4-(trifluoromethyl)isoindolin-1-one]
81 nM | 10x | 810 nM | 10× | 77 nM | 770 nM | CO[C@H]1C[C@@](c2cc(NC3CCCC3)cc(N3Cc4c(cc(CNC5(C)CCC5)cc4C(F)(F)F)C3=O)c2)(c2nncn2C)C1 [Compound 218, 2-(3-(cyclopentylamino)-5-((1s,3s)-3-methoxy-1-(4-methyl-4H-1,2,4-triazol-3-yl)cyclobutyl)phenyl)-6-(((1-methylcyclobutyl)amino)methyl)-4-(trifluoromethyl)isoindolin-1-one]

— US12187709B2 (Genentech, Inc., priority 2021, dated 2025)
